Test system: Normal human articular chondrocytes (NHAC's)
Assay: Aggrecan induction, Alcian blue stain assay
Type: cell-based
Conditions: primary human chondrocytes 12 days post infection, FIG. 5
Procedure: A second assay to screen for chondrocyte anabolic factors is developed by monitoring the levels of aggrecan, another major constituent of cartilage. In this assay, glycosaminoglycans on aggrecan are stained by Alcian blue. NHACs are seeded in 384 well plates and 1 day after plating infected with individual Ad-siRNA from the SilenceSelect™ collection. […] Using Ad-BMP2 as a positive control, we confirm in a series of experiments that several parameters optimized for the ColII cELISA assay are also applicable for the Alcian blue stain assay for aggrecan. These parameters include cell seeding density, MOIs of control viruses, duration of infection, and the day of readout.
NHAC's are seeded on day 0 at 1500 cells/well of a 384 well black-plate with clear bottom in 60 μl of DMEM/F12, containing 10% FBS-HI and Pen/Strep and infected the next day with 2.5 μl of Ad-BMP2 or Ad-eGFP; at an MOI of 2000. After 7 days, 10 μl of a 50 μg/ml 2-Phospho-L-ascorbic acid in assay culture medium is added to each well. […] After replacing 50% ethanol/3% acetic acid with 70% ethanol/3% acetic acid, each individual well is photographed with a SONY CCD camera, images are analyzed using a Galapagos Alcian blue quantification algorithm based on the separation of the blue signal through a color threshold procedure after a noise reduction filter. […]

## GGTGTATGGGCTCATGTAC (adenoviral siRNA, target sequence only, chemistry not fully specified) [Ad-siRNA targeting FZD1]
  aggrecan levels (Alcian blue staining): does not seem to induce Alcian blue staining
